According to ChEMBL document CHEMBL1126567, “CC-1065 functional analogues possessing different electron-withdrawing substituents and leaving groups: synthesis, kinetics, and sequence specificity of reaction with DNA and biological evaluation” (J Med Chem, 1993):
In brackets after ≈: the same amount, converted by molar mass.

Assay: In vitro reduction in viability of KB cells by modified crystal violet assay.
Type: functional, cell-based
Conditions: Homo sapiens

| SMILES | IC50 [µg/mL] |
| --- | --- |
| CS(=O)(=O)OCC1CN(S(C)(=O)=O)c2cc(OCc3ccccc3)ccc21 (configuration not stated) | 4.39 (≈ 10.7 µM) |
| CS(=O)(=O)N1CC2CC23C=CC(=O)C=C13 (configuration not stated) | 8.64 (≈ 38.4 µM) |
| COC(=O)c1cc2c(cc1O)N(S(C)(=O)=O)CC2CCl (configuration not stated) | 8.38 (≈ 26.2 µM) |
| CS(=O)(=O)OCC1CN(S(C)(=O)=O)c2cc(O)c([N+](=O)[O-])cc21 (configuration not stated) | 0.764 (≈ 2.09 µM) |
| CS(=O)(=O)OCC1CN(S(C)(=O)=O)c2cc(O)ccc21 (configuration not stated) | 3.69 (≈ 11.5 µM) |
| CS(=O)(=O)OCC1CN(S(C)(=O)=O)c2cc(O)c(Br)cc21 (configuration not stated) | 0.308 (≈ 0.769 µM) |
| CS(=O)(=O)N1CC(CCl)c2ccc(OCc3ccccc3)cc21 (configuration not stated) | 6.32 (≈ 18 µM) |
| CS(=O)(=O)OCC1CN(S(C)(=O)=O)c2cc(OCc3ccccc3)c(Br)cc21 (configuration not stated) | 5.21 (≈ 10.6 µM) |
| COC(=O)c1cc2c(cc1OCc1ccccc1)N(S(C)(=O)=O)CC2CCl (configuration not stated) | 7.14 (≈ 17.4 µM) |
| CS(=O)(=O)N1CC(CCl)c2cc(C=O)c(O)cc21 (configuration not stated) | 4.83 (≈ 16.7 µM) |
| CS(=O)(=O)N1CC(CCl)c2cc(Br)c(O)cc21 (configuration not stated) | 3.8 (≈ 11.2 µM) |
| CS(=O)(=O)OCC1CN(S(C)(=O)=O)c2cc(OCc3ccccc3)c([N+](=O)[O-])cc21 (configuration not stated) | 7.91 (≈ 17.3 µM) |
| CS(=O)(=O)N1CC(CCl)c2cc(C=O)c(OCc3ccccc3)cc21 (configuration not stated) | 3.24 (≈ 8.53 µM) |
| CS(=O)(=O)N1CC(CCl)c2cc(Br)c(OCc3ccccc3)cc21 (configuration not stated) | 6.18 (≈ 14.3 µM) |
| CS(=O)(=O)N1CC(CCl)c2cc([N+](=O)[O-])c(O)cc21 (configuration not stated) | 8.85 (≈ 28.9 µM) |
| CS(=O)(=O)N1CC(CCl)c2ccc(O)cc21 (configuration not stated) | 4.24 (≈ 16.2 µM) |
| COc1cccc2c1C(=O)c1c(O)c3c(c(O)c1C2=O)C[C@@](O)(C(=O)CO)C[C@@H]3O[C@H]1C[C@H](N)[C@H](O)[C@H](C)O1 [DOXORUBICIN] | 0.02 (≈ 0.0368 µM) |
